Activity calls are given as the source filed them.
Tests used:
Type in all cases: functional, organism-based
[1] = tested on: Mucor hiemalis; test: Antifungal activity against Mucor hiemalis DSM 2656 assessed as inhibition of fungal growth incubated for overnight by serial dilution assay
[2] = tested on: Schizosaccharomyces pombe; test: Antifungal activity against Schizosaccharomyces pombe DSM 70572 assessed as inhibition of fungal growth incubated for overnight by serial dilution assay
[3] = tested on: Mycolicibacterium smegmatis; test: Antibacterial activity against Mycobacterium smegmatis ATCC 700084 assessed as inhibition of bacterial growth incubated for overnight by serial dilution assay
[4] = tested on: Escherichia coli; test: Antibacterial activity against Escherichia coli DSM 1116 assessed as inhibition of bacterial growth incubated for overnight by serial dilution assay
[5] = tested on: Staphylococcus aureus; test: Antibacterial activity against Staphylococcus aureus DSM 346 assessed as inhibition of bacterial growth incubated for overnight by serial dilution assay
[6] = tested on: Bacillus subtilis; test: Antibacterial activity against Bacillus subtilis DSM 10 assessed as inhibition of bacterial growth incubated for overnight by serial dilution assay
[7] = tested on: Rhodotorula glutinis; test: Antifungal activity against Rhodotorula glutinis DSM 10134 assessed as inhibition of fungal growth incubated for overnight by serial dilution assay
[8] = tested on: Pseudomonas aeruginosa; test: Antibacterial activity against Pseudomonas aeruginosa DSM PA14 assessed as inhibition of bacterial growth incubated for overnight by serial dilution assay
[9] = tested on: Wickerhamomyces anomalus; test: Antifungal activity against Pichia anomala DSM 6766 assessed as inhibition of fungal growth incubated for overnight by serial dilution assay
[10] = tested on: Candida albicans; test: Antifungal activity against Candida albicans DSM 1665 assessed as inhibition of fungal growth incubated for overnight by serial dilution assay
[11] = tested on: Chromobacterium violaceum; test: Antibacterial activity against Chromobacterium violaceum DSM 30191 assessed as inhibition of bacterial growth incubated for overnight by serial dilution assay
[12] = tested on: Acinetobacter baumannii; test: Antibacterial activity against Acinetobacter baumannii […] DSM 30008 assessed as inhibition of bacterial growth incubated for overnight by serial dilution assay

Measured: Activity

CC(C)[C@H]1CC[C@H](C)c2c(O)c(O)c(C=O)c(C3=C(O)C(=O)C4=C(OCc5c(O)c(O)c6c(c54)[C@@H](C(C)C)CC[C@@H]6C)C3=O)c21
inactive: all assays above

Cc1c(O)c(O)c(C(C)C)c2c1CCC(C(=O)O)=C2
inactive: all assays above

CC(C)[C@H]1CC[C@H](C)c2c(O)c(O)c3c(c21)C1=C(OC3)C(=O)C2=C(OCc3c(O)c(O)c4c(c32)[C@@H](C(C)C)CC[C@@H]4C)C1=O
inactive: all assays above

CC(C)[C@H]1CC[C@H](C)c2c(O)c(O)c(C=O)c(C3=C(O)C(=O)C=C(O)C3=O)c21
inactive: all assays above

O=c1cc(O)cc(/C=C/c2ccc(O)c(O)c2)o1
inactive: all assays above

CC(C)[C@H]1CC[C@H](C)C2=C1C=C(C(=O)O)CC2
inactive: all assays above

CC1=C(O)C(=O)C(c2c(C=O)c(O)c(O)c3c2[C@@H](C(C)C)CC[C@@H]3C)=C(O)C1=O
inactive: all assays above

CC(C)[C@H]1CC[C@H](C)c2c(O)c(O)c(C=O)c(C3=C(O)C(=O)C(c4c(C=O)c(O)c(O)c5c4[C@@H](C(C)C)CC[C@@H]5C)=C(O)C3=O)c21
inactive: all assays above

CC(C)[C@H]1CC[C@H](C)c2c(O)c(O)c(CO)c(C3=C(O)C(=O)C4=C(OCc5c(O)c(O)c6c(c54)[C@@H](C(C)C)CC[C@@H]6C)C3=O)c21
inactive: all assays above

O=c1cc(O)cc(C2c3c(cc(/C=C/c4ccc(O)c(O)c4)oc3=O)OC2c2ccc(O)c(O)c2)o1 (stereo not given)
inactive: all assays above

Reference: ChEMBL document CHEMBL5233291, “Calamene-Type Sesqui-, Mero-, and Bis-sesquiterpenoids from Cultures of Heimiomyces sp., a Basidiomycete Collected in Africa” (J Nat Prod, 2023)
